Reference: publication PMC11283679 (Gastroenterology, 2023)
Ends that are not written are not given here. C(BODIPY) = not defined here

System: NHE3
Assay type: cell-based, human
Conditions: for activity: read-out: Stimulation of NHE3 activity (%)

Substance | EC50 [µM] | activity [%] | Stimulation of NHE3 activity (%)
N3SP-1Δ6: N3SP-1 with truncation of 6 N-terminal aa (PRPSTVEASVSYLLRESASAVCLDMQSLEQRR-{C(BODIPY)}; reading uncertain; UniProt P26432 574-605, looked up, fragment) | 0.151 | 40 | –
N3SP-1Δ5: N3SP-1 with truncation of 5 N-terminal aa (TPRPSTVEASVSYLLRESASAVCLDMQSLEQRR-{C(BODIPY)}; reading uncertain; UniProt P26432 573-605, looked up, fragment) | 0.154 | 39 | –
N3SP-1Δ18: N3SP-1 with truncation of 18 N-terminal aa (LLRESASAVCLDMQSLEQRR-{C(BODIPY)}; reading uncertain; UniProt P26432 586-605, looked up, fragment) | – | – | No
N3SP-1Δ9: N3SP-1 with truncation of 9 N-terminal aa (STVEASVSYLLRESASAVCLDMQSLEQRR-{C(BODIPY)}; reading uncertain; UniProt P26432 577-605, looked up, fragment) | – | – | No
N3SP-1Δ8: N3SP-1 with truncation of 8 N-terminal aa (PSTVEASVSYLLRESASAVCLDMQSLEQRR-{C(BODIPY)}; reading uncertain; UniProt P26432 576-605, looked up, fragment) | – | 9 | –
